Read-outs that look alike come from different tables or passages of the source.
Experiments:
[1] = molecular target: platelet P2Y12 receptor (Rattus norvegicus, UniProt Q9EPX4)
[2] = tested on: ADP-induced platelet aggregation
[3] = single oral dose 10 mg/kg, 4 h after administration, P < 0.05

Sequence of platelet P2Y12 receptor (Q9EPX4 whole entry): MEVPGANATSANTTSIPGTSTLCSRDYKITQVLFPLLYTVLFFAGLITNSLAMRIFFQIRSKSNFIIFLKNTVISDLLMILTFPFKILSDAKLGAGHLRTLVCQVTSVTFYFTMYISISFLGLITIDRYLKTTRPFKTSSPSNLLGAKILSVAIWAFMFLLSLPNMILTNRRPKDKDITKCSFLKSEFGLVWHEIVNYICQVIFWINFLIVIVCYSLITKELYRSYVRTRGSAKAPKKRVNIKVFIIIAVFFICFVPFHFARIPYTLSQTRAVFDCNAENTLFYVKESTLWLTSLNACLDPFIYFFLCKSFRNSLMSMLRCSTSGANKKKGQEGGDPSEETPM

change in P2Y12 occupancy between D1H4 and D7H4 ([1]; 3 mg/kg oral for 7 consecutive days, male SD rats, P < 0.01): gradual and significant increase
decrease in P2Y12 occupancy in T2DM rats vs control rats ([1]; single oral dose 10 mg/kg, 1 h post-administration, P < 0.05): 50.7%
decrease in P2Y12 occupancy in T2DM rats vs control rats ([1]; single oral dose 10 mg/kg, 4 h post-administration, P < 0.001): 64.4%
time of maximal P2Y12 occupancy ([1]; single oral dose 10 mg/kg, male SD rats, post-administration): 4 h
Compound: COC(=O)[C@H](c1ccccc1Cl)N1CCc2sccc2C1 [Clop, Clopidogrel]
mean IPA ([2]; 3 mg/kg repeated oral dose group, male SD rats, 5 umol/L ADP): 14.0 ± 12.5%
mean IPA ([2]; 30 mg/kg repeated oral dose group, male SD rats, 5 umol/L ADP): 59.6 ± 10.1%
time for platelet activity to recover after cessation of administration ([2]; 3, 10 and 30 mg/kg for 7 days, all three dose groups, male SD rats): five
decrease in IPA vs Clop alone ([2]; co-administration 10 mg/kg Clop + 10 mg/kg omeprazole, after 7 days, P < 0.01): 57.3%
increase in MPA vs Clop alone ([2]; co-administration 10 mg/kg Clop + 10 mg/kg omeprazole, after 7 days, P < 0.05): 21.1%
decrease in IPA in T2DM rats vs control rats [2, 3]: 48.3%
increase in MPA in T2DM rats vs control rats [2, 3]: 33.2%
time of peak maximal inhibitory effect on platelet aggregation (MPA, IPA) ([2]; single oral dose 10 mg/kg, male SD rats, post-administration, 5 umol/L ADP): 4 h

From paper PMC11873646 (Acta Pharmaceutica Sinica. B, 2024)
